Test results as given in patent US20220395472A1 (Dermavant Sciences GmbH, priority 2021, published 2022).

Test: Preclinical repeat-dose systemic exposure
Type: in vivo
Source text: The reason for the decrease in plasma concentrations over time is unknown. Without wishing to be bound by theory, as the skin heals, there may be less penetration of the drug through the stratum corneum and into the systemic circulation since the barrier is restored.

- systemic exposures with repeat dosing compared to single doses (minipigs): no changes in systemic exposures
- systemic exposures with repeat dosing compared to single doses (rats): no changes in systemic exposures
SMILES: CC(C)c1c(O)cc(/C=C/c2ccccc2)cc1O [Tapinarof, 3,5-Dihydroxy-4-isopropyl-trans-stilbene]
